Measurements taken from ChEMBL document CHEMBL3638687, “N-biphenylmethylindole modulators of PPARG” (2015).

Target: T1, Peroxisome proliferator-activated receptor gamma (Homo sapiens, UniProt P37231)
T1 sequence (P37231 whole entry): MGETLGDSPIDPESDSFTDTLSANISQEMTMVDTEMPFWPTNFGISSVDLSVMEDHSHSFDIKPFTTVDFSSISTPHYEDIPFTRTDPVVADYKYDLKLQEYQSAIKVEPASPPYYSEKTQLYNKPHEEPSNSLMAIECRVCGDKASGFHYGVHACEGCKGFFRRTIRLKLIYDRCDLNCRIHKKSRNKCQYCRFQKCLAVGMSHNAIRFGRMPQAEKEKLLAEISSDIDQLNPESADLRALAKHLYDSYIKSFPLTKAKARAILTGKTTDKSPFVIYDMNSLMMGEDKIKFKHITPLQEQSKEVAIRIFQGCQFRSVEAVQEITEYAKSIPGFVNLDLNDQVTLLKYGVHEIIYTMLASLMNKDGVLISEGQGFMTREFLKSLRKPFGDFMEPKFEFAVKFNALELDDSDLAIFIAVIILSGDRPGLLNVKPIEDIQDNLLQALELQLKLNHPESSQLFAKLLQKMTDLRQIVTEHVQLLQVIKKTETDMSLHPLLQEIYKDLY
Test: Lanthascreen Competitive Binding Assay: The assay was performed according to manufacturer protocol. A mixture of […], 5 nM Tb-GST-antibody, 5 nM Fluormone Pan-PPAR Green, and serial dilutions of the experimental compound, beginning at 10 μM downwards, was added to wells of black 384-well low-volume plates (Greiner) to a total volume of 18 μL. All dilutions were made in TR-FRET assay buffer C. DMSO at 2% final concentration was used as a no-ligand control. Experiment was performed in triplicate, and incubated for 2 hours in the dark prior to assay read in Perkin Elmer ViewLux ultra HTS microplate reader. FRET signal was measured by excitation at 340 nm and emission at 520 nm for fluorescein and 490 nm for terbium. Fold change over DMSO was calculated using GraphPad Prism Software (La Jolla, Calif.) by calculating 520 nm/490 nm ratio. Graphs were plotted as fold change of FRET signal for compound treatment over DMSO-only control.

First: CCC(NC(=O)c1ccc2c(c1)c(C)c(C)n2Cc1ccc(-c2ccccc2C#N)cc1)c1ccccc1 (stereo unspecified)
Second: CC[C@@H](NC(=O)c1ccc2c(c1)c(C)c(C)n2Cc1ccccc1-c1ccc(C(=O)O)cc1)c1ccccc1
The IC50 of the first is 150-fold lower: 0.54 nM for the first, 80 nM for the second. The first is the more potent here.

Cc1c(C)n(Cc2ccc(-c3cccnc3)cc2)c2ccc(C(=O)N[C@@H](C)c3ccc([N+](=O)[O-])cc3)cc12 and Cc1cn(Cc2ccc(-c3ccccc3C(=O)O)cc2)c2ccc(C(=O)N[C@@H](C)c3ccc([N+](=O)[O-])cc3)cc12 are within 1.5-fold of each other in IC50: 150 nM for the first, 126 nM for the second.

Compared with Cc1c(C)n(Cc2ccc(-c3ccccc3C(=O)O)cc2)c2ccc(C(=O)NCc3ccc(F)c(F)c3)cc12, Cc1c(C)n(Cc2ccc(-c3ccccc3C(=O)O)cc2)c2ccc(C(=O)N[C@@H](C)c3ccc(Cl)c(C(F)(F)F)c3)cc12 is 2.1-fold lower in IC50: 31 nM for the first, 15 nM for the second.

CCC(NC(=O)c1ccc2c(c1)c(C)cn2Cc1ccc(-c2ccccc2C(=O)O)cc1)c1ccccc1 (stereo unspecified) and CCC(NC(=O)c1ccc2c(c1)cc(C)n2Cc1ccc(-c2ccccc2C(=O)O)cc1)c1ccccc1 (stereo unspecified) are the same in IC50: 2 nM for the first, 2 nM for the second.

Compared with CC[C@@H](NC(=O)c1ccc2c(c1)c(C)c(C)n2Cc1ccccc1-c1cccc(C(=O)O)c1)c1ccccc1, CC[C@H](NC(=O)c1ccc2c(c1)c(C)c(C)n2Cc1ccccc1-c1cccc(C(=O)O)c1)c1ccccc1 is 4-fold higher in IC50: 20 nM for the first, 80 nM for the second.

First: CC[C@H](NC(=O)c1ccc2c(c1)c(C)c(C)n2Cc1ccccc1-c1ccc(C(=O)O)cc1)c1ccccc1
Second: Cc1c(C)n(Cc2ccc(-c3ccccc3C(=O)O)cc2)c2ccc(C(=O)N[C@@H](C)c3cccc(OC(C)C)c3)cc12
The IC50 of the first is higher: greater than 1000 nM for the first, 19 nM for the second. The second is the more potent here.

Compared with Cc1c(C)n(Cc2ccc(-c3ccccc3C(=O)O)cc2)c2ccc(C(=O)N[C@@H](C)c3ccc(OC(C)(C)C)cc3)cc12, Cc1c(C)n(Cc2ccc(-c3ccccc3C(=O)O)cc2)c2ccc(C(=O)N[C@@H](C)c3ccc(OC(C)C)cc3)cc12 is 13-fold lower in IC50: 449 nM for the first, 34 nM for the second. The second is the more potent here.

Going from Cc1c(C)n(Cc2ccc(-c3ccccc3C(=O)O)cc2)c2ccc(C(=O)N[C@@H](C)C3CCN(C(=O)NCc4ccccc4)CC3)cc12 to Cc1c(C)n(Cc2ccc(-c3ccccc3C(=O)O)cc2)c2ccc(C(=O)N[C@H]3CCN(C(=O)OCc4ccccc4)C3)cc12, the IC50 falls from 805 nM to 536 nM (1.5-fold).
